Source: US20240122938A1, “METHODS AND COMPOSITIONS FOR TREATING UVEAL MELANOMA” (INSERM (INSTITUT NATIONAL DE LA SANTÉ ET DE LA RECHERCHE …, priority 2019, published 2024)

How the values were obtained:
metastatic cell lines = assay: Colony formation assay; type: cell-based, human; settings: metastatic versus primary cell lines; data not shown
Protocol: Human uveal melanoma cells were seeded onto 6-well plates. The cells were subsequently placed in a 37° C., 5% C02 incubator. Colonies of cells were grown before being stained with 0.04% crystal violet/2% ethanol in PBS for 30 min. Photographs of the stained colonies were captured. The colony formation assay was performed in duplicate.

[1] = test system: metastatic uveal melanoma cells; assay: Cell death by Annexin V/DAPI staining (flow cytometry); type: cell-based, human
Protocol: (§1) Cells were seeded at a density of 100 000 cells/well, in 6-well plate and treated with ABT-263 for indicated time. Cells were harvested using accutase enzyme, washed twice with ice-cold phosphate-buffered saline, resuspended in a buffer (Hepes 250 mM, NaCl 150 mM, KCl 5 mM, MgCl2 2 mM, CaCl2) 2 mM) with DAPI (1 μg/ml) and Annexin V-Alexa Fluor 647 conjugate (1/100) and incubated for 15 minutes at room temperature (25° C.) in the dark. Samples were immediately analyzed by a flow cytometer (MACS QUANT) using a laser at 405 nm excitation with a bandpass filter at 425 nm and 475 nm for DAPI detection and a laser at 635 nm excitation with a bandpass filter at 650 nm and 665 nm for Alexa Fluor 647 dye. Annexin and DAPI mono- or double positive cells were counted as dead cells.

[2] = test system: primary uveal melanoma cell lines; assay: as above; type: cell-based, human
Protocol: as §1

[3] = test system: short-term cultures of primary uveal melanoma tumour; assay: Cell death in short-term cultures; type: cell-based, human; settings: data not shown
Protocol: Human uveal melanoma cell lines and short-term cultures derived from different patients with metastatic malignant melanoma cells were grown in DMEM supplemented with 7% FBS at 37° C. in a humidified atmosphere containing 5% CO2. Lipofectamine™ RNAiMAX and opti-MEM medium were purchased from Invitrogen (San Diego, CA, USA). ABT-263 was obtained from Euromedex and qVD from Clinisciences. Cells were seeded at a density of 100 000 cells/well, in 6-well plate and treated with ABT-263 for indicated time. Cells were harvested using accutase enzyme, washed twice with ice-cold phosphate-buffered saline, resuspended in a buffer (Hepes 250 mM, NaCl 150 mM, KCl 5 mM, MgCl2 2 mM, CaCl2) 2 mM) with DAPI (1 μg/ml) and Annexin V-Alexa Fluor 647 conjugate (1/100) and incubated for 15 minutes at room temperature (25° C.) in the dark. Samples were immediately analyzed by a flow cytometer (MACS QUANT) using a laser at 405 nm excitation with a bandpass filter at 425 nm and 475 nm for DAPI detection and a laser at 635 nm excitation with a bandpass filter at 650 nm and 665 nm for Alexa Fluor 647 dye. Annexin and DAPI mono- or double positive cells were counted as dead cells.

92.1 cells = assay: Cell death / apoptosis; type: cell-based, human; settings: 92.1 cells; similar level as Mel270
Protocol: as §1

[4] = test system: Mel270 uveal melanoma cells; assay: Mitochondrial membrane potential by TMRE staining; type: cell-based, human; settings: Mel270; ABT-263 3 μM or 5 μM, 48 h
Protocol: FIG. 1. ABT-263 induces apoptosis of uveal melanoma cells. Detection of the mitochondrial membrane potential using TMRE staining in Mel270 and OMM1 uveal melanoma cells exposed to ABT-263 3 μM or 5 μM for 48 h in the absence or presence of QVD-OPh 20 μM.

[5] = test system: 92.1 uveal melanoma cells xenografts; assay: Subcutaneous tumor xenograft; type: in vivo, athymic nude mice; settings: 92.1 xenografts
Protocol: FIG. 3. ABT-263 reduces tumor growth in vivo. (A) Primary 92.1 uveal melanoma cells were subcutaneously engrafted into athymic nude mice. Once the tumours reached 100 mm3, mice were treated daily with ABT-263. The arrow indicates the start of the treatment. The growth tumor curves were determined by measuring the tumor volume using the equation V=(L Å˜W2)/2. […] (B) Sub-cutaneous tumor weight from control (Ct) and ABT-263-treated mice is shown. (C) Blood biochemical analysis of mice xenografted with OMM1 cells. Serum activity of alanine transaminase (ALT) and aspartate transaminase (AST) was measured in control and ABT-263 by spectrophotometric methods after the end of treatment. Data are presented as mean±SD (n=5 per group). Animal experiments were performed in accordance with French law and approved by a local institutional ethical committee. The animals were maintained in a temperature-controlled facility (22° C.) on a 12-h light/dark cycle and provided free access to food (standard laboratory chow diet from UAR, Epinay-S/Orge, France). Human Mel270 uvealmelanoma cells were subcutaneously inoculated into 8-week-old female, immune-deficient, athymic, nude FOXN1nu mice (Harlan Laboratory). […] The growth tumor curves were determined after measuring the tumor volume using the equation V=(L×W2)/2. […]

[6] = test system: ER stress molecules in Mel270 cells; assay: Western blot of ER stress molecules; type: cell-based, human
Protocol: Western blot of ER stress molecules in Mel270 cells treated with ABT-263 5 μM in the absence or presence of QVD-OPh 20 μM. Representative western blot are shown.
(§2) Western blotting was performed as previously described 25,26. Briefly, cell lysates (30 μg) were separated using SDS-PAGE, transferred onto a PVDF membrane and subsequently exposed to the appropriate antibodies, anti-BCL2 (ms-123-PO) was from neomarker, anti-caspase 3 (#610323) was from BD, anti-BAX (#8429) was from sigma, anti-PARP (#9542), anti-BCL-XL (#2762), anti-caspase 9 (#9502) and anti-PUMA (#4976) were from Cell Signaling Technology Inc, anti-MCL1 (#sc-819), anti-NOXA (#56169), and anti-HSP90 (#sc-13119) were from Santa Cruz biotechnology. The proteins were visualized using the ECL system (Amersham).

[7] = test system: CDK4, p27 and p21 in Mel270 cells; assay: Western blot of cell cycle proteins; type: cell-based, human
Protocol: as §2, with “(Amersham). The western blots shown are representative of at least 3 independent experiments.” for “(Amersham).”

## CC1(C)CCC(c2ccc(Cl)cc2)=C(CN2CCN(c3ccc(C(=O)NS(=O)(=O)c4ccc(N[C@H](CCN5CCOCC5)CSc5ccccc5)c(S(=O)(=O)C(F)(F)F)c4)cc3)CC2)C1 [ABT-263, 4-[4-[[2-(4-chlorophenyl)-5,5-dimethyl-1-cyclohexen-1-yl]methyl]-1-piperazinyl]-N-[[4-[[(1R)-3-(4-morpholinyl)-1-[(phenylthio)methyl]propyl]amino]-3-[(trifluoromethyl)sulfonyl]phenyl]sulfonyl]-benzamide]
Metastatic cell lines
  long-term growth inhibitory activity (colony formation): more sensitive
[1]
  cell death: 80%
[2]
  cell death: 20-35%
[3]
  killing effect: killing effect was also found
92.1 cells
  ABT-263-induced apoptosis with PERK knockdown: sensitized
[4]
  mitochondrial membrane potential ΔΨm: dose-dependently reduced
[5]
  tumor growth: almost no effect
[6]; Mel270 cells
  ATF4 and CHOP level: enhanced
[6]; kinetics analysis in Mel270
  ER stress pathways (BIP, PERK, EIF2α, ATF4, IRE1α, XBP1, ATF6, CHOP): activates all branches of the ER stress pathways
[7]
  cell cycle (reduced CDK4, increased p27 and p21): cell cycle arrest
